Test results published in patent publication US20240165123A1, “USE OF A COMPOUND CONTAINING A TRICYCLIC HETEROARYL GROUP” (CSPC Zhongqi Pharmaceutical Technology (Shijiazhuang) Co., …, priority 2021, published 2024).

How the values were obtained:
[1] = tested on: IMQ-induced mouse psoriasis model; experiment: Pharmacodynamic test in the IMQ-induced mouse psoriasis model; assay type: in vivo, female Balb/c mice; parameters: key to Skin PASI score Erythema / Skin PASI score Scaling / Skin PASI score Thickness: PASI component score, 0-4 points; key to Skin PASI Total Score: sum of erythema, scaling, thickness scores (each 0-4); key to Skin pathological score: sum of histopathology criterion points; settings: for Epidermal thickness / IL-6 content in skin (ELISA) / Skin pathological score / Spleen weight / Spleen weight/body weight (spleen index) / TNF-alpha content in skin (ELISA): after 14 days of treatment
From the text: The purpose of this test was to evaluate the pharmacodynamics of Compound (I) in the IMQ (5% imiquimod cream cream)-induced mouse psoriasis model. One of the clinical adverse effects of imiquimod is to induce the onset of psoriasis.
• Test medicament: Compound (I) • Positive control medicament: dexamethasone (Dex) • Vehicle: 0.4% Tween 80/0.5% methylcellulose.
• female Balb/c mice aged 5-6 weeks, number: 70.
The animals were randomly divided into seven groups according to the body weights on the day before the start of the experiment.
The animals were shaved on their back one day before applying the medicament, forming a skin exposure area having a size of about 2 cm×3 cm. The mice were induced by IMQ, and applied with 62.5 mg of 5% imiquimod cream on the bare back and the right ear at regular intervals every day for 14 days. Mice in the normal control group were applied with vaseline on the bare back and the right ear at regular intervals every day.
The skin thickness was measured daily from the first day of the test until the end of the test.
The skin thickness measurement method was as follows: the back skin and the subcutaneous tissue of the mouse were pinched with the thumb and the index finger of the left hand in the same direction as the mouse body; the skinfold thickness was measured 1 cm away from the pinched part of the left hand (near the center of the molding part) with a digital thickness gauge (with millesimal reading) held in the right hand (model BK-3281, manufacturer: Shanghai Niuhui). The thickness was in mm, and the actual thickness was the half of the measured thickness (the skin thickness=the measured value/2).
The ear thickness was measured daily (at the center of the auricle).
Skin photographs were taken daily from the first day of the test until the end of the test.
The clinical symptoms were evaluated with the PASI evaluation standard from three indicators of the erythema (Erythema), the scale (Scaling) and the skin thickness (Thickness), and scored with 0-4 points. The total score was obtained by summing the three scores. The PASI evaluation standard was as follows: 0, asymptomatic; 1, mild; 2, moderate; 3, severe; 4, extremely severe.
Erythema: 0—no erythema visible; 1—light red; 2—red; 3—dark red; 4—extremely dark red.
Scaling: 0—no visible scale on the skin surface; 1—part of the skin lesion surface covered with scales; 2—most of the skin lesion surface covered with scales; 3—almost all of the skin lesion region covered with scales; 4—all of the skin lesion region covered with scales.
Dryness and pruritus are not included in the total score.
On the 14th day of the test, the spleen weight was collected.
After the test, all mice were euthanized by excessive inhalation of carbon dioxide. The skin was collected and divided into four parts, one of which was fixed in a tissue fixative solution for 24 hours for the pathological is detection. It was dehydrated, then embedded in paraffin and made into 4-micron sections. Skin sections were stained with hematoxylin eosin to observe the infiltration of the stratum corneum, the epidermal layer, the dermis layer and the inflammatory cell. When measuring the thickness of the epidermal layer, the stained skin sections were scanned with a Leca Aperio CS2 scanner at 200×magnification, and then the histopathological changes were observed and scored.
The specific criteria of the pathological score were as follows: munro microabscess found in the epidermal layer 2.0 points; hyperkeratosis 0.5 points; parakeratosis 1.0 points; the thinning or disappearing of the granular layer 1.0 points; the thickening of acanthosis 1.0 points; the extension and fluctuation of cuticular process 0.5, 1.0 and 1.5 points respectively according to the mild, moderate and severe degrees. […]

[2] = Rat effective dose for safety window calculation; assay type: in vivo

SMILES: NC(=O)c1cnc(Nc2ccc3c(c2)OC[C@H]2CN(S(=O)(=O)C4CC4)CCN32)nc1NC1CC1 [Compound (I), (R)-4-(cyclopropylamino)-2-((3-(cyclopropylsulfonyl)-1,2,3,4,4a,5-hexahydrobenzo[b]pyrazolo[1,2-d][1,4]oxazin-8-yl)amino)pyrimidine-5-arboxamide]
- Ear thickness Left ([1]; 3 mpk PO bid, 1st Day): 0.15 ± 0.00 mm
- Ear thickness Right ([1]; 3 mpk PO bid, 1st Day): 0.15 ± 0.00 mm
- Ear thickness Right-Left ([1]; 3 mpk PO bid, 1st Day): 0.00 ± 0.00 mm
- Skin PASI Total Score ([1]; 3 mpk PO bid, 1st Day): 0.00 ± 0.00
- Skin PASI score Erythema ([1]; 3 mpk PO bid, 1st Day): 0.00 ± 0.00
- Skin PASI score Scaling ([1]; 3 mpk PO bid, 1st Day): 0.00 ± 0.00
- Skin PASI score Thickness ([1]; 3 mpk PO bid, 1st Day): 0.00 ± 0.00
- Skin thickness ([1]; 3 mpk PO bid, 1st Day): 0.32 ± 0.00 mm
- Ear thickness Left ([1]; 3 mpk PO bid, 14th Day): 0.16 ± 0.00 mm
- Ear thickness Right ([1]; 3 mpk PO bid, 14th Day): 0.48 ± 0.01 mm
- Ear thickness Right-Left ([1]; 3 mpk PO bid, 14th Day): 0.32 ± 0.01 mm
- Skin PASI Total Score ([1]; 3 mpk PO bid, 14th Day): 8.10 ± 0.23
- Skin PASI score Erythema ([1]; 3 mpk PO bid, 14th Day): 3.00 ± 0.00
- Skin PASI score Scaling ([1]; 3 mpk PO bid, 14th Day): 2.30 ± 0.15
- Skin PASI score Thickness ([1]; 3 mpk PO bid, 14th Day): 2.80 ± 0.13
- Skin thickness ([1]; 3 mpk PO bid, 14th Day): 0.51 ± 0.01 mm
- Epidermal thickness ([1]; 3 mpk PO bid): 136.10 ± 5.96 μm
- IL-6 content in skin (ELISA) ([1]; 3 mpk PO bid): 554.74 ± 88.14 pg/g
- Skin pathological score ([1]; 3 mpk PO bid): 7.75 ± 0.39
- Spleen weight ([1]; 3 mpk PO bid): 231.44 ± 12.72 mg
- Spleen weight/body weight (spleen index) ([1]; 3 mpk PO bid): 14.46 ± 0.71 mg/g
- TNF-alpha content in skin (ELISA) ([1]; 3 mpk PO bid): 1191.74 ± 124.81 pg/g
- Ear thickness Left ([1]; 10 mpk PO bid, 1st Day): 0.14 ± 0.00 mm
- Ear thickness Right ([1]; 10 mpk PO bid, 1st Day): 0.14 ± 0.00 mm
- Ear thickness Right-Left ([1]; 10 mpk PO bid, 1st Day): 0.00 ± 0.00 mm
- Skin PASI Total Score ([1]; 10 mpk PO bid, 1st Day): 0.00 ± 0.00
- Skin PASI score Erythema ([1]; 10 mpk PO bid, 1st Day): 0.00 ± 0.00
- Skin PASI score Scaling ([1]; 10 mpk PO bid, 1st Day): 0.00 ± 0.00
- Skin PASI score Thickness ([1]; 10 mpk PO bid, 1st Day): 0.00 ± 0.00
- Skin thickness ([1]; 10 mpk PO bid, 1st Day): 0.32 ± 0.00 mm
- Ear thickness Left ([1]; 10 mpk PO bid, 14th Day): 0.15 ± 0.00 mm
- Ear thickness Right ([1]; 10 mpk PO bid, 14th Day): 0.44 ± 0.00 mm
- Ear thickness Right-Left ([1]; 10 mpk PO bid, 14th Day): 0.28 ± 0.00 mm
- Skin PASI Total Score ([1]; 10 mpk PO bid, 14th Day): 7.70 ± 0.60
- Skin PASI score Erythema ([1]; 10 mpk PO bid, 14th Day): 2.90 ± 0.10
- Skin PASI score Scaling ([1]; 10 mpk PO bid, 14th Day): 2.40 ± 0.27
- Skin PASI score Thickness ([1]; 10 mpk PO bid, 14th Day): 2.40 ± 0.27
- Skin thickness ([1]; 10 mpk PO bid, 14th Day): 0.53 ± 0.02 mm
- Epidermal thickness ([1]; 10 mpk PO bid): 131.63 ± 7.15 μm
- IL-6 content in skin (ELISA) ([1]; 10 mpk PO bid): 641.83 ± 96.28 pg/g
- Skin pathological score ([1]; 10 mpk PO bid): 7.45 ± 0.80
- Spleen weight ([1]; 10 mpk PO bid): 182.01 ± 9.11 mg
- Spleen weight/body weight (spleen index) ([1]; 10 mpk PO bid): 11.71 ± 0.56 mg/g
- TNF-alpha content in skin (ELISA) ([1]; 10 mpk PO bid): 1432.02 ± 152.77 pg/g
- Ear thickness Left ([1]; 30 mpk PO bid, 1st Day): 0.14 ± 0.00 mm
- Ear thickness Right ([1]; 30 mpk PO bid, 1st Day): 0.14 ± 0.00 mm
- Ear thickness Right-Left ([1]; 30 mpk PO bid, 1st Day): 0.00 ± 0.00 mm
- Skin PASI Total Score ([1]; 30 mpk PO bid, 1st Day): 0.00 ± 0.00
- Skin PASI score Erythema ([1]; 30 mpk PO bid, 1st Day): 0.00 ± 0.00
- Skin PASI score Scaling ([1]; 30 mpk PO bid, 1st Day): 0.00 ± 0.00
- Skin PASI score Thickness ([1]; 30 mpk PO bid, 1st Day): 0.00 ± 0.00
- Skin thickness ([1]; 30 mpk PO bid, 1st Day): 0.32 ± 0.00 mm
- Ear thickness Left ([1]; 30 mpk PO bid, 14th Day): 0.16 ± 0.00 mm
- Ear thickness Right ([1]; 30 mpk PO bid, 14th Day): 0.41 ± 0.01 mm
- Ear thickness Right-Left ([1]; 30 mpk PO bid, 14th Day): 0.26 ± 0.01 mm
- Skin PASI Total Score ([1]; 30 mpk PO bid, 14th Day): 5.50 ± 0.31
- Skin PASI score Erythema ([1]; 30 mpk PO bid, 14th Day): 2.90 ± 0.10
- Skin PASI score Scaling ([1]; 30 mpk PO bid, 14th Day): 1.20 ± 0.13
- Skin PASI score Thickness ([1]; 30 mpk PO bid, 14th Day): 1.40 ± 0.16
- Skin thickness ([1]; 30 mpk PO bid, 14th Day): 0.50 ± 0.01 mm
- Epidermal thickness ([1]; 30 mpk PO bid): 121.75 ± 8.17 μm
- IL-6 content in skin (ELISA) ([1]; 30 mpk PO bid): 638.09 ± 59.63 pg/g
- Skin pathological score ([1]; 30 mpk PO bid): 5.55 ± 0.90
- Spleen weight ([1]; 30 mpk PO bid): 146.81 ± 7.71 mg
- Spleen weight/body weight (spleen index) ([1]; 30 mpk PO bid): 9.27 ± 0.47 mg/g
- TNF-alpha content in skin (ELISA) ([1]; 30 mpk PO bid): 1236.41 ± 100.8 pg/g
- Ear thickness Left ([1]; 60 mpk PO bid, 1st Day): 0.14 ± 0.00 mm
- Ear thickness Right ([1]; 60 mpk PO bid, 1st Day): 0.14 ± 0.00 mm
- Ear thickness Right-Left ([1]; 60 mpk PO bid, 1st Day): 0.00 ± 0.00 mm
- Skin PASI Total Score ([1]; 60 mpk PO bid, 1st Day): 0.00 ± 0.00
- Skin PASI score Erythema ([1]; 60 mpk PO bid, 1st Day): 0.00 ± 0.00
- Skin PASI score Scaling ([1]; 60 mpk PO bid, 1st Day): 0.00 ± 0.00
- Skin PASI score Thickness ([1]; 60 mpk PO bid, 1st Day): 0.00 ± 0.00
- Skin thickness ([1]; 60 mpk PO bid, 1st Day): 0.33 ± 0.01 mm
- Ear thickness Left ([1]; 60 mpk PO bid, 14th Day): 0.15 ± 0.00 mm
- Ear thickness Right ([1]; 60 mpk PO bid, 14th Day): 0.38 ± 0.01 mm
- Ear thickness Right-Left ([1]; 60 mpk PO bid, 14th Day): 0.22 ± 0.01 mm
- Skin PASI Total Score ([1]; 60 mpk PO bid, 14th Day): 4.60 ± 0.34
- Skin PASI score Erythema ([1]; 60 mpk PO bid, 14th Day): 2.00 ± 0.15
- Skin PASI score Scaling ([1]; 60 mpk PO bid, 14th Day): 1.20 ± 0.13
- Skin PASI score Thickness ([1]; 60 mpk PO bid, 14th Day): 1.40 ± 0.16
- Skin thickness ([1]; 60 mpk PO bid, 14th Day): 0.43 ± 0.02 mm
- Epidermal thickness ([1]; 60 mpk PO bid): 113.28 ± 6.95 μm
- IL-6 content in skin (ELISA) ([1]; 60 mpk PO bid): 499.72 ± 95.81 pg/g
- Skin pathological score ([1]; 60 mpk PO bid): 5.05 ± 0.88
- Spleen weight ([1]; 60 mpk PO bid): 125.73 ± 4.63 mg
- Spleen weight/body weight (spleen index) ([1]; 60 mpk PO bid): 8.01 ± 0.28 mg/g
- TNF-alpha content in skin (ELISA) ([1]; 60 mpk PO bid): 1188.81 ± 159.63 pg/g
- AUC ([2]; in vivo, rat effective dose 3 mg/kg/time BID): 4310 ng·h/mL
- Safety window, dose method ([2]; rat effective dose (reference)): 1 fold
- Effective dose for rats ([2]; rats): 3 mg/kg/time bid
